Experimental data published in patent publication US20230174523A1, “BENZENESULFONAMIDE DERIVATIVES AS TRAP1 MODULATORS AND USES THEREOF” (Amathus Therapeutics, Inc., priority 2020, published 2023).
pEC50: −log10 of the molar value.

Target: T1, TRAP1 enzyme (Homo sapiens, UniProt Q12931)
T1 sequence (Q12931 60-704): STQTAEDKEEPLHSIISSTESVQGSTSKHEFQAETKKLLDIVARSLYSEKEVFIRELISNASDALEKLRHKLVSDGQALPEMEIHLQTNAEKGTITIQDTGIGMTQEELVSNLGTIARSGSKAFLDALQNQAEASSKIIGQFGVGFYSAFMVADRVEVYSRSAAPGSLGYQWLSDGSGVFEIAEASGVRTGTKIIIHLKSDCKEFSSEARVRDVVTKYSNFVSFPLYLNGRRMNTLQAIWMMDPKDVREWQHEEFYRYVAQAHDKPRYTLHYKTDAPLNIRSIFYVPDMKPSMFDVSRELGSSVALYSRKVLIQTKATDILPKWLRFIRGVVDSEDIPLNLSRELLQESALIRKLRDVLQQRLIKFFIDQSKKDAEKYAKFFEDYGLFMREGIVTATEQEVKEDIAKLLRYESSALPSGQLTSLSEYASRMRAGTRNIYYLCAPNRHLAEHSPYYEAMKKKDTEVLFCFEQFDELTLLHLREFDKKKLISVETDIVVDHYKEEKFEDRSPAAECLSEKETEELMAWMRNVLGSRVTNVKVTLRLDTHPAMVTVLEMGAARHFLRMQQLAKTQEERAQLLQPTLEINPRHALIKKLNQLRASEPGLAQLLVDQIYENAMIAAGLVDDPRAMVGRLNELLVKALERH
Test: ADP Glo assay of TRAP1 ATPase activity
Assay type: biochemical
Details: for pEC50: TRAP1 ATPase activation, 150 nM Trap1, 20 μM ATP, geometric mean, read-out: ADP GLO DRC: GeoMean EC50; for Emax: read-out: ADP GLO DRC: Mean Emax
Method in brief: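 150 nM TRAP1 preincubated with compound (0.79–100 μM) 30 min at 37° C in Pipes pH 7.5 buffer (0.05 mM MgCl2, 40 mM KCl), then 20 μM ATP added for 60 min at 37° C. ADP quantified by ADP-Glo luminescence against ATP/ADP standard curve. Emax and EC50 from sigmoidal fit.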

pEC50 | Emax [%] | SMILES
> 5.00 | 160 to 199 | COc1ccc(NC(=O)c2ccc(-c3ccccn3)s2)cc1S(=O)(=O)Nc1c(C)cccc1C [Compound 1152]
4.00 to 4.70 | 123 to 159 | COc1ccc(NC(=O)c2c(C(F)(F)F)ccnc2C)cc1S(=O)(=O)Nc1c(C)cccc1C [Compound 1153]
4.00 to 4.70 | 200 to 300 | COc1ccc(NC(=O)c2cccc(OC3CCOCC3)n2)cc1S(=O)(=O)Nc1c(C)cccc1C [Compound 1154]
> 5.00 | 123 to 159 | COc1ccc(NC(=O)c2sc(-c3cccs3)nc2C)cc1S(=O)(=O)Nc1c(C)cccc1C [Compound 1156]
> 5.00 | 123 to 159 | COc1ccc(NC(=O)c2cccnc2SCc2ccccc2)cc1S(=O)(=O)Nc1c(C)cccc1C [Compound 1157]
4.00 to 4.70 | 160 to 199 | COc1ccc(NC(=O)c2cnoc2C2CC2)cc1S(=O)(=O)Nc1c(C)cccc1C [Compound 1160]
> 5.00 | 123 to 159 | COc1ccc(NC(=O)c2ccc(-c3ccccc3C(F)(F)F)o2)cc1S(=O)(=O)Nc1c(C)cccc1C [Compound 1162]
> 5.00 | 123 to 159 | COc1ccc(NC(=O)c2cc(C)cc(F)c2F)cc1S(=O)(=O)Nc1c(C)cccc1C [Compound 1164]
4.70 to 5.00 | 123 to 159 | COc1ccc(NC(=O)c2ncccc2C)cc1S(=O)(=O)Nc1c(C)cccc1C [Compound 1167]
> 5.00 | 160 to 199 | COc1ccc(NC(=O)c2nc(C(C)C)cs2)cc1S(=O)(=O)Nc1c(C)cccc1C [Compound 1169]
> 5.00 | 123 to 159 | COc1ccc(NC(=O)c2cc3ccccc3n2C)cc1S(=O)(=O)Nc1c(C)cccc1C [Compound 1170]
4.00 to 4.70 | 160 to 199 | COc1ccc(NC(=O)c2nccs2)cc1S(=O)(=O)Nc1c(C)cccc1C [Compound 1171]
> 5.00 | 160 to 199 | CCCN1CCN(c2ccc(C(=O)Nc3ccc(OC)c(S(=O)(=O)Nc4c(C)cccc4C)c3)cc2)CC1 [Compound 1174]
4.00 to 4.70 | 160 to 199 | COc1ccc(NC(=O)c2cnc(C3CC3)o2)cc1S(=O)(=O)Nc1c(C)cccc1C [Compound 1175]
> 5.00 | 160 to 199 | COc1ccccc1-c1nc(C(=O)Nc2ccc(OC)c(S(=O)(=O)Nc3ccc(Br)cc3)c2)c[nH]1 [Compound 1181]
4.00 to 4.70 | > 300 | C=C(C)c1cc(OC)c(S(=O)(=O)Nc2ccc(C(F)(F)F)cc2)cc1NC(=O)c1ncc(-c2ccccc2)o1 [Compound 1189]
4.70 to 5.00 | 160 to 199 | COc1ccc(NC(=O)c2cccc(-c3cnco3)c2)cc1S(=O)(=O)Nc1c(C)cccc1C [Compound 1218]
4.00 to 4.70 | 160 to 199 | COc1ccc(NC(=O)c2cccc3ncccc23)cc1S(=O)(=O)Nc1c(C)cccc1C [Compound 1219]
4.00 to 4.70 | 123 to 159 | O=C(Nc1ccc(F)c(S(=O)(=O)Nc2ccc(Cl)cc2)c1)c1cccc(-n2cncn2)c1 [Compound 1220]
4.70 to 5.00 | 200 to 300 | COc1ccc(NC(=O)c2cccc(-c3cnccn3)c2)cc1S(=O)(=O)Nc1c(C)cccc1C [Compound 1222]
4.00 to 4.70 | 160 to 199 | COc1ccc(NC(=O)c2cccc3cnccc23)cc1S(=O)(=O)Nc1c(C)cccc1C [Compound 1224]
> 5.00 | 200 to 300 | COc1ccc(NC(=O)c2cccc(-c3cccnc3)c2)cc1S(=O)(=O)Nc1c(C)cccc1C [Compound 1225]
4.00 to 4.70 | 123 to 159 | COc1ccc(NC(=O)c2cc(C)nc3onc(C)c23)cc1S(=O)(=O)Nc1c(C)cccc1C [Compound 1226]
4.70 to 5.00 | 200 to 300 | COc1ccc(NC(=O)c2cccc3ncsc23)cc1S(=O)(=O)Nc1c(C)cccc1C [Compound 1227]
4.00 to 4.70 | 123 to 159 | COc1ccc(NC(=O)c2ccc3c(c2)ncn3C)cc1S(=O)(=O)Nc1c(C)cccc1C [Compound 1228]
